Results as given in ChEMBL document CHEMBL1165918, “Synthesis and biological activity of N-aroyl-tetrahydro-gamma-carbolines” (Bioorg Med Chem, 2010).

Experiments:
L1210 [1] = assay: Cytotoxicity against mouse L1210 cells after 72 hrs by MTT assay; format: functional, cell-based; conditions: L1210, 72 h
MCF7 [2] = assay: Growth inhibition of human MCF7 cells at 10 uM after 72 hrs by MTT assay; format: functional; conditions: MCF7, 72 h, read-out: GI
PC-3 [3] = assay: cells; conditions: Homo sapiens, PC-3, 72 h
Description: Cytotoxicity against human PC3 cells after 72 hrs by MTT assay

[4] = target: T1, Prostaglandin G/H synthase 1 (Homo sapiens, UniProt P23219); format: tissue-based, Blood
T1 sequence (P23219 whole entry): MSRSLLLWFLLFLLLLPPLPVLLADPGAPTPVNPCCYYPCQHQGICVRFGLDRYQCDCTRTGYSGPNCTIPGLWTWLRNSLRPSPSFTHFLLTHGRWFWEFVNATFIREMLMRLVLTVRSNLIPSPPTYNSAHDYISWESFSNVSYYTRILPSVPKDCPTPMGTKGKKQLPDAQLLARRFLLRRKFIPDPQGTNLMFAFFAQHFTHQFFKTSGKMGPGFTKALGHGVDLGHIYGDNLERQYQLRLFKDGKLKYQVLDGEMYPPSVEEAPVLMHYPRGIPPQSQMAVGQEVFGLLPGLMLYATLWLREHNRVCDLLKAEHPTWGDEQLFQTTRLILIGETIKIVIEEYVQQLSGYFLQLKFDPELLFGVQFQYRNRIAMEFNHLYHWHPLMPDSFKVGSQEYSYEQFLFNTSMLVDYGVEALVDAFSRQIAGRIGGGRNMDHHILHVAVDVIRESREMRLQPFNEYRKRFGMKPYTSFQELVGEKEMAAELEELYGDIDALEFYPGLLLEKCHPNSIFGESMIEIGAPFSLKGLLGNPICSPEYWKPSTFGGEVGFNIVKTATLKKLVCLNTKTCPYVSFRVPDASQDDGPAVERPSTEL
Description: Inhibition of COX1 in human whole blood assessed as inhibition of 12-hydroxyheptadecatrienoic acid production by HPLC method

L1210 [5] = assay: Growth inhibition of mouse L1210 cells at 10 uM after 72 hrs by MTT assay; format: functional; conditions: L1210, 72 h, read-out: GI
PC-3 [6] = assay: Growth inhibition of human PC3 cells at 10 uM after 72 hrs by MTT assay; format: functional; conditions: PC-3, 72 h, read-out: GI
[7] = target: T1, Prostaglandin G/H synthase 1; assay: Inhibition of COX1 in human whole blood assessed as inhibition of 12-hydroxyheptadecatrienoic acid production at 10 uM by HPLC method; format: tissue-based
[8] = target: T2, Polyunsaturated fatty acid 5-lipoxygenase (Homo sapiens, UniProt P09917)
T2 sequence (P09917 whole entry): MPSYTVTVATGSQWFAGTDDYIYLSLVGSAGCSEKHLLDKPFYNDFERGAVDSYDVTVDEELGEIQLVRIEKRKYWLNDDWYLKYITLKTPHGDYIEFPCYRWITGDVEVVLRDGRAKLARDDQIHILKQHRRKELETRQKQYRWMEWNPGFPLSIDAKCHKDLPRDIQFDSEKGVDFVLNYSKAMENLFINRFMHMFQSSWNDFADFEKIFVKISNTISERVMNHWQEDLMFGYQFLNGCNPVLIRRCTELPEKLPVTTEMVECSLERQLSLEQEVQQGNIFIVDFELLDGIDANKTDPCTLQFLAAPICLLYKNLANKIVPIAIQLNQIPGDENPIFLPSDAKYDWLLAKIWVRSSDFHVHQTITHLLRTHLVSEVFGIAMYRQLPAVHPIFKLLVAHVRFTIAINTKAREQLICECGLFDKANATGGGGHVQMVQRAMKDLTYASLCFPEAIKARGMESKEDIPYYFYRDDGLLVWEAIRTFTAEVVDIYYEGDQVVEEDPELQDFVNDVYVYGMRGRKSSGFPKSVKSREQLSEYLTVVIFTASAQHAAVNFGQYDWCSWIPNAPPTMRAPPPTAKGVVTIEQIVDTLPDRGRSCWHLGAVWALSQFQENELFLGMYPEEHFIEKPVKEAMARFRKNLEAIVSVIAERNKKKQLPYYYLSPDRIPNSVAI

[9] = target: T2, Polyunsaturated fatty acid 5-lipoxygenase; remark: listed apart in the source
[10] = target: T3, Prostaglandin G/H synthase 2 (Homo sapiens) (UniProt P35354); assay: Inhibition of COX2 in human whole blood assessed as inhibition of 12-hydroxyheptadecatrienoic acid production at 10 uM by HPLC method; format: tissue-based
T3 sequence (whole entry): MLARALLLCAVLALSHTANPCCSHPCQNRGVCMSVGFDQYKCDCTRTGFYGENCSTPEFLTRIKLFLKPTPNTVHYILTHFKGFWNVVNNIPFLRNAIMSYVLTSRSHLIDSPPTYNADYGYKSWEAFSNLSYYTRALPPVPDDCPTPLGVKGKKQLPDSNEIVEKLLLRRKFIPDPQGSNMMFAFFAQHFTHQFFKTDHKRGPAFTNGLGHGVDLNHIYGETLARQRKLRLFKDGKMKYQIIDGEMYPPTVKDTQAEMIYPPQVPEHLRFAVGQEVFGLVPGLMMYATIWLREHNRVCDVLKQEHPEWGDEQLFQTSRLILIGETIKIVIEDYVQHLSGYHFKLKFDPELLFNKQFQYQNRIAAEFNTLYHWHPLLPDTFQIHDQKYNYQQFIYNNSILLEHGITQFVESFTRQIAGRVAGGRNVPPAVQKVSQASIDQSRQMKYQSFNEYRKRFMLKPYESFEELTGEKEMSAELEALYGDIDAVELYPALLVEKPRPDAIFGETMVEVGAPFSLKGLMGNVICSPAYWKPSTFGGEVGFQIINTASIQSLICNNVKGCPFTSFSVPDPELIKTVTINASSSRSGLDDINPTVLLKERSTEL

[11] = target: T2, Polyunsaturated fatty acid 5-lipoxygenase; assay: Inhibition of 5-lipoxygenase in human whole blood; format: tissue-based
[12] = target: T1, Prostaglandin G/H synthase 1; assay: Inhibition of COX1 in human whole blood; format: tissue-based
Homo sapiens = organism: Homo sapiens; assay: Selectivity ratio of IC50 for COX2 in human whole blood to IC50 for COX1 in human whole blood; format: tissue-based
MCF7 [13] = assay: cells; conditions: Homo sapiens, MCF7, 72 h
Description: Cytotoxicity against human MCF7 cells after 72 hrs by MTT assay

[14] = target: T4, Polyunsaturated fatty acid 5-lipoxygenase (Homo sapiens) (UniProt P09917); format: tissue-based; conditions: Blood, 10 uM
T4 sequence (whole entry): T2 sequence (P09917 whole entry)

SMILES | inhibition of growth at 10 µM (MCF7 [2]) | IC50 [4] | inhibition of growth at 10 µM (L1210 [5]) | inhibition of growth at 10 µM (PC-3 [6]) | IC50 [8] | IC50 [9] | other results
COc1ccc2c(c1)c1c(n2Cc2ccc(S(C)(=O)=O)cc2)CCN(CCCOc2cc(F)cc(C3(OC)CCOCC3)c2)C1 | 27% |  |  |  |  |  | IC50 (L1210 [1]): 5 µM; IC50 (PC-3 [3]): 8 µM
COc1ccc2c(c1)c1c(n2C(=O)c2ccccc2)CCNC1 | 0% | 6 µM | 32% | 0% |  |  | 
COc1ccc2c(c1)c1c(n2C(=O)c2ccccc2F)CCN(CCCOc2cc(F)cc(C3(OC)CCOCC3)c2)C1 | 21% |  | 45% | 15% | 39.3 µM | > 10 µM | inhibition [7]: 83.5%
CS(=O)(=O)c1ccc2c(c1)c1c(n2C(=O)c2ccccc2)CCNC1 | 0% | 24.4 µM | 0% | 7% |  |  | 
COC1(c2cc(F)cc(OCCCN3CCc4c(c5cc(S(C)(=O)=O)ccc5n4C(=O)c4ccccc4)C3)c2)CCOCC1 | 15% | 24 µM | 38% | 37% |  |  | inhibition [10]: 8.4%
COc1ccc2c(c1)c1c(n2C(=O)c2ccc(F)cc2)CCN(CCCOc2cc(F)cc(C3(OC)CCOCC3)c2)C1 | 37% |  | 44% | 0% | 58 µM | 59.9 µM | inhibition [7]: 71.6%
COC1(c2cc(F)cc(OCc3cc(-c4ccccc4)n(-c4ccc(S(C)(=O)=O)cc4)n3)c2)CCOCC1 |  |  |  |  |  |  | IC50 [11]: 0.2 µM; IC50 [12]: > 10 µM
COC1(c2cc(F)cc(OCCCN3CCc4c(c5ccccc5n4C(=O)c4ccccc4)C3)c2)CCOCC1 | 30% | 18.2 µM | 24% | 6% | 92.9 µM | 206 µM | 
COc1ccc2c(c1)c1c(n2C(=O)c2ccc(Br)cc2)CCN(CCCOc2cc(F)cc(C3(OC)CCOCC3)c2)C1 | 39% | 16.5 µM | 42% | 0% | 47.4 µM | 62 µM | 
COC1(c2cc(F)cc(OCCCN3CCc4c(c5cc(F)ccc5n4Cc4ccc(S(C)(=O)=O)cc4)C3)c2)CCOCC1 | 34% | 180 µM | 38% |  | 29.5 µM | 24.6 µM | IC50 (PC-3 [3]): 8 µM
COC(=O)c1cc2cc(S(C)(=O)=O)ccc2n1Cc1ccc(Cl)cc1 |  |  |  |  |  |  | IC50 [12]: > 10 µM; Ratio IC50 (Homo sapiens): < 0.05
COc1ccc2c(c1)c1c(n2C(=O)c2ccccc2)CCN(CCCOc2cc(F)cc(C3(OC)CCOCC3)c2)C1 | 18% |  | 20% | 20% | 66.4 µM | 108 µM | inhibition [7]: 84.3%
COc1ccc2c(c1)c1c(n2C(=O)c2c(Cl)cc(Cl)cc2Cl)CCN(CCCOc2cc(F)cc(C3(OC)CCOCC3)c2)C1 | 36% | 36.7 µM | 11% | 0% | 45.4 µM | 55 µM | 
Cc1ccc(-c2cc(C(F)(F)F)nn2-c2ccc(S(N)(=O)=O)cc2)cc1 [CELECOXIB] |  |  |  |  |  |  | IC50 (L1210 [1]): 44 µM; IC50 (MCF7 [13]): 50.2 µM
COc1ccc2c(c1)c1c(n2C(=O)c2ccc(S(=O)(=O)/N=C/N(C)C)cc2)CCN(CCCOc2cc(F)cc(C3(OC)CCOCC3)c2)C1 | 21% |  |  | 42% |  | > 10 µM | inhibition [14]: 81.4%; IC50 (L1210 [1]): 6 µM
COc1ccc2c(c1)c1c(n2C(=O)c2cccc(F)c2)CCN(CCCOc2cc(F)cc(C3(OC)CCOCC3)c2)C1 | 8% | 7.8 µM | 40% | 44% | 38 µM | 40.5 µM | 
COc1ccc2c(c1)c1c(n2C(=O)c2ccc(Cl)cc2)CCN(CCCOc2cc(F)cc(C3(OC)CCOCC3)c2)C1 |  | 7.4 µM |  | 9% | 59.3 µM | 119 µM | IC50 (L1210 [1]): 8 µM; IC50 (MCF7 [13]): 8 µM
COC1(c2cc(F)cc(OCCCN3CCc4c(c5cc(S(C)(=O)=O)ccc5n4CCCOc4cc(F)cc(C5(OC)CCOCC5)c4)C3)c2)CCOCC1 | 36% |  |  |  |  |  | IC50 (L1210 [1]): 3 µM
